{"source": "patent US20210386705A1", "about": "“APPLICATION OF CHIGLITAZAR AND RELATED COMPOUNDS THEREOF” (SHENZHEN CHIPSCREEN BIOSCIENCES CO., LTD., priority 2018, published 2021)", "key": {"[1]": {"system": "primary human hepatic stellate cells", "assay": "PDGF-BB stimulated proliferation of hepatic stellate cells (EdU and MTT assay)", "assay_type": "cell-based", "settings": "EdU 24 hours, MTT 72 hours, FIGS. 1-2", "procedure": "Primary human hepatic stellate cells (HSC) purchased from Sciencell Research Laboratories, Inc. were seeded into 96-well plates with complete growth media (Stellate Cell Medium) for 24 hours, followed by culturing overnight in culture media free of serum and growth factors, and then the culture media were replaced by fresh media containing platelet-derived growth factor (PDGF-BB) and the compounds to be tested (chiglitazar sodium or the reference compound PPARγ/α dual agonist pioglitazone purchased from Selleck Chemicals LLC) at various concentrations, and the cells were cultured for 24 hours. When the cells were treated with the compounds for the last 17 hours, EdU (5-ethynyl-2′-deoxyuridine) was added to the cells. Finally, the culture media were removed and the cells were fixed with formaldehyde. The amount of the EdU incorporated into the DNA of the cells was quantified by fluorescent Click-it EdU assay according to the manufacturer's instructions (Beyotime). […] The inhibition of cell proliferation by the compounds was determined by comparing the EdU incorporated value of the control group (FIG. 1). […]"}, "[2]": {"system": "connective tissue growth factor (CTGF)", "assay": "TGF-β1-activated hepatic stellate cells, CTGF gene expression (qPCR)", "assay_type": "cell-based, human", "settings": "TGF-β1 stimulation, 24 hours; FIG. 4", "procedure": "Human primary hepatic stellate cells were seeded into 6-well plates with complete growth media (Stellate Cell Medium) for 24 hours, and then the culture media were replaced by fresh media (free of serum and growth factors) containing TGF-β1 and the compound to be tested (sodium chiglitazar) or the reference compound PPARγ/α dual agonist pioglitazone or PPARα/δ dual agonist GFT505 (both purchased from Selleck), and the cells were cultured for 24 hours. The total RNAs of the samples were extracted, and reverse transcription reaction was performed. Thereafter, a conventional PCR amplification kit (FastStart Universal SYBR@ Green Master (ROX), Roche) was used for further detection, where the PCR primers were designed with reference to the NCBI standard mRNA sequence of the target genes (Table 2). PCR reaction and detection were carried out on the ABI StepOnePlus real-time quantitative PCR instrument.\nBy calculating the relative amount of transcripts was calculate by “Delta-Delta CT method” (Livak et al. Methods 2001), and using ACTB as the housekeeping gene for normalization and the average data of untreated human hepatic stellate cells as a reference control, the relative change folds of gene expression were obtained (FIG. 4)."}}, "data": [{"smiles": "O=C(c1ccc(F)cc1)c1ccccc1N[C@@H](Cc1ccc(OCCn2c3ccccc3c3ccccc32)cc1)C(=O)[O-].[Na+]", "note": "[sodium chiglitazar]", "values": [{"measurement": "Inhibition of in vitro proliferation of liver-derived fibroblasts", "setting": "[1]", "value": "had inhibitory activity"}, {"measurement": "Effect on expression of connective tissue growth factor", "setting": "[2]", "value": "significant and dose-dependent inhibitory effect"}]}]}
